The source of these data is patent publication US7825103B2, “Pyrimidine nucleoside compound or its salt” (Taiho Pharmaceutical Co., Ltd., priority 2005, dated 2010).

For data set [1], the system named is Human large intestine cancer cell strain KM20C. Nature of the data set: Anti-tumor test using nude mouse subcutaneous implantation system, peroral administration in an equitoxic dose. It counts as in vivo, BALB/cA Jcl-nu mice. The note with it: peroral once a day for 14 days, FIG. 1; for deletion of tumor: 6 animals per group. As for the experimental part: Human large intestine cancer cell strain KM20C was subcutaneously subcultured in BALB/cA Jcl-nu mice (CLEA Japan, Inc.), and the resultant cancer tissues were cut into 2 mm dice fragments. Each of the fragments was subcutaneously implanted to a 6-week-old BALB/cA Jcl-nu mouse at the back thereof. On day 15 after the implantation, large and small diameters of the resultant tumor were measured, and the volume of the tumor was calculated through use of the following equation. The mice were grouped (6 animals per group) so that the average tumor volume was common to each group. Vt=½(Vl)×(Vs)^2 (Equation 5) In the equation, Vt represents tumor volume, Vl represents large diameter of tumor, and Vs represents small diameter of tumor.
CNDAC, P-CNDAC, or Compound 19 was dissolved or suspended in 0.5% hydroxypropyl methyl cellulose solution which had been buffered with 100 mM citrate buffer (pH 5.0). From the next day of grouping, the mixture was perorally administered to each mouse once a day for consecutive 14 days in an equitoxic dose.
Large and small diameters of the subcutaneously implanted tumor of each mouse were measured twice a week, and relative tumor volume (RTV) was calculated as an index indicating tumor growth through use of the following equations to evaluate anti-tumor effect of the compound. RTV=Vt1/Vt2 (Equation 6) In the equation, RTV represents ratio of tumor volume, Vt1 represents tumor volume measured on the day of determination, and Vt2 represents tumor volume measured on the day of grouping.

Data set [2] has the same test system. Briefly: Anti-tumor test using nude mouse subcutaneous implantation system with peroral administration of CNDAC compound. It counts as in vivo, BALB/cA Jcl-nu mice. Conditions: Mus musculus, sc, 696 h; peroral once a day for 14 days, dose equivalent by mole to 18 mg/kg/day of CNDAC; day 29 after grouping; KM20C subcutaneous implant; read-out: IR (%) tumor growth inhibition rate. As for the experimental part: Human large intestine cancer cell strain KM20C was subcutaneously subcultured in BALB/cA Jcl-nu mice (CLEA Japan, Inc.), and the resultant cancer tissues were cut into 2 mm dice fragments. Each of the fragments was subcutaneously implanted to a 6-week-old BALB/cA Jcl-nu mouse at the back thereof. On day 14 after the implantation, large and small diameters of the resultant tumor were measured, and the volume of the tumor was calculated by the following equation. The mice were grouped (6 animals per group) so that the groups were roughly equal in terms of average tumor volume. Vt=½(Vl)×(Vs)^2 (Equation 1) In the equation, Vt represents tumor volume, Vl represents large diameter of tumor, and Vs represents small diameter of tumor.
Each CNDAC compound was dissolved or suspended in 0.5% hydroxypropyl methyl cellulose solution which had been buffered with 100 mM citrate buffer (pH 6.0). From the next day after grouping, the mixture was perorally administered to each mouse once a day for consecutive 14 days in a dose which is equivalent, by mole, to 18 mg/kg/day of CNDAC.
On day 29 after the grouping, large and small diameters of the subcutaneously implanted tumor of each mouse were measured, and relative tumor volume (RTV) and inhibition rate (IR) were calculated by the following equations to evaluate anti-tumor effect of the compound. RTV=Vt1/Vt2 (Equation 2) In the equation, RTV represents ratio of tumor volume, Vt1 represents tumor volume measured on the day of determination, and […]. IR(%)=[1−(RTVtest)/(RTVcont)]×100 (Equation 3) In the equation, IR represents tumor growth inhibition rate, RTVtest represents mean RTV value of a drug-administered group, and RTVcont represents mean RTV value of a non-treatment group.

Regarding `N#C[C@H]1[C@H](O)[C@@H](CO)O[C@H]1n1ccc(N)nc1=O` [CNDAC, 2′-cyano-2′-deoxy-1-β-D-arabinofuranosylcytosine, reference compound], the deletion of tumor result in data set [1] is reported as “no deletion of tumor”. Also, in data set [2], the inhibition in vivo at 18 mg/kg/day came to 46%.
Broadly, the melting point is the temperature of the solid-liquid transition. Consider `CC(C)C(C)(C)[Si](C)(C)O[C@H]1[C@H](C#N)[C@H](n2ccc(N)nc2=O)O[C@@H]1CO` [Example 19, 3′-O-Dimethylthexylsilyl-2′-cyano-2′-deoxy-1-β-D-arabinofuranosylcytosine], for which the melting point is 159 to 161 °C. In addition, in data set [1], the deletion of tumor result was “deletes tumor in three cases in total six cases”; the “change in tumor volume (RTV)” value is “greatly reduces the tumor volume as compared with CNDAC and P-CNDAC”. The inhibition in vivo in data set [2] stood at 89%.
